Assay results reported in US8981111B2 (priority 2008, dated 2015).

Test: log P (HPLC/MS data of the preparation examples)
Conditions: linear gradient 10% to 95% acetonitrile
[1] = method [b]: LC-MS at pH 2.7, 0.1% formic acid in water / acetonitrile
[2] = LC-MS, method [b]: pH 2.7 with 0.1% formic acid in water and acetonitrile

CC(C)CC(=O)Nc1cccc(CON=C(c2ccccc2)c2nn(C)c(=O)n2C)n1 [Example 148]
log p [1]: 2.82^[b]

Cc1cc(C(F)(F)F)nn1CC(=O)Nc1cccc(CON=C(c2cccc(F)c2)c2nccn2C)n1 [Example 292]
log p [2]: 2.8^[b]

CCCCCCC(=O)Nc1cccc(CON=C(c2ccsc2)c2cncn2C)n1 [Example 438]
log p (HPLC (LC-MS) method [b]: pH 2.7, 0.1% formic acid in water and acetonitrile, EEC directive 79/831 Annex V.A8): 2.25^[b]

Cn1cnnc1C(=NOCc1cccc(NC(=O)Cc2ccccc2)n1)c1ccccc1 [Example 158]
log p [1]: 2.56^[b]

Cn1nncc1C(=NOCc1cccc(N)n1)c1ccccc1 [Example 60]
log p [2]: 1.11^[b]
